For data set [1], the target named is TrkA (Homo sapiens, UniProt P04629). The note with it: binds TrkA specifically (LeSauteur 1995); read-out: apparent Kd; cited from earlier work.
Data set [2] concerns 4-3.6 cells. The data set can be described thus: Cell survival in SFM challenged with tyrosine kinase inhibitor K252a. It is filed as cell-based, rat. The note with it: highest concentration tested (500 nM). On the procedure: 5,000 cells/well in protein-free media (PFHM-II, GIBCO, Toronto, Ontario) containing 0.1% BSA (Crystalline fraction V, Sigma, St. Louis MO) were added to 96 well plates (Falcon, Mississauga, Ontario). The cultures were untreated or supplemented with serial dilutions of neurotrophins (positive control), test mAbs, or mouse IgG (negative control). The survival profile of the cells was quantitated using the MTT colorimetric assay after 48-72 hours. Percent protection was standardized relative to 1 nM NGF concentrations using the MTT optical density (OD 590 nm) and following formula: [(ODtest -ODuntreated )/(OD1nM NGF-ODuntreated )] × 100. [formula] The OD of untreated samples (SFM only) were ~10% of 1 nM NGF control.
Some survival experiments were also carried out in the presence of various concentrations of the tyrosine kinase inhibitor K252a. The concentrations of K252a used were previously reported.
Assays were done as described in Table 1 legend. 4-3.6 cell survival in SFM achieved by incubation with the indicated ligands. Optimal ligand concentrations were used as per Table 3 (1 nM NGF, 5 nM 5C3 mAb and 5 nM 5C3 + 0.5 nM MC192 mAbs) . Cells were challenged with various concentrations of K252a and % survival was calculated using 1 nM NGF as 100% standard. K252a inhibits both NGF and mAb-mediated survival in a dose dependent manner and to a similar relative degree.

Where a SMILES comes first, the peptide text is derived from it. Bridges are numbered along the chain shown (N, C = ends).

Sequence of TrkA (P04629 33-796, species assumed): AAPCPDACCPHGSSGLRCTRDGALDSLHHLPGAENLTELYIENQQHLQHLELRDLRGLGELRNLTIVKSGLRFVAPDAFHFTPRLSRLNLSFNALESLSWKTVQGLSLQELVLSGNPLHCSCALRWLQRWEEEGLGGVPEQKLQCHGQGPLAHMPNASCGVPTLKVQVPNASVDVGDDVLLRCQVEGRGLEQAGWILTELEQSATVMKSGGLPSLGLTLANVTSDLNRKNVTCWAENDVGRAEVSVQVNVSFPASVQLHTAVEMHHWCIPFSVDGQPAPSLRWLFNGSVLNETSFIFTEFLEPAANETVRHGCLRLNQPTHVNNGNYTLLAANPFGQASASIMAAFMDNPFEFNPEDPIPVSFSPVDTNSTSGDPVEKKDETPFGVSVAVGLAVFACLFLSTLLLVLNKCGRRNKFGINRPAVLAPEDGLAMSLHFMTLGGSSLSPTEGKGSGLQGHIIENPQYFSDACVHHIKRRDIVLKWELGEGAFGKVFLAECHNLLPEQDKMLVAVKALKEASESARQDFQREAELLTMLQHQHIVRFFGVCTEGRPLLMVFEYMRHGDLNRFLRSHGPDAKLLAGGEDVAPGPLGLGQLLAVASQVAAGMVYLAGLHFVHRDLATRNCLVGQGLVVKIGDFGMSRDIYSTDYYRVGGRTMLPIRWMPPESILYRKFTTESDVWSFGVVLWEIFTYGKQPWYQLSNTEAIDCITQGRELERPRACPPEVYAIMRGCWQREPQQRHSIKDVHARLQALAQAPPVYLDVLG

With `CC(=O)N[C@@H](Cc1ccc(O)cc1)C(=O)N[C@H]1CSSC[C@@H](C(=O)N[C@@H](Cc2ccc(O)cc2)C(=O)O)NC(=O)[C@H](CCC(N)=O)NC(=O)[C@H](CCCCN)NC(=O)[C@H](CCC(=O)O)NC(=O)[C@H](CC(=O)O)NC(=O)[C@H]([C@@H](C)O)NC1=O` [C(92-96)] (Ac-YCTDEKQCY-OH; disulfide 2-8), the Kd in data set [1] is approximately 100 nM.

As for `COC(=O)[C@@]1(O)C[C@H]2O[C@]1(C)n1c3ccccc3c3c4c(c5c6ccccc6n2c5c31)C(=O)NC4` [K252a], the “toxicity to 4-3.6 cells” value in data set [2] is reported as “not toxic”.

The record behind these values is patent EP1001810B1, “PHARMACEUTICAL COMPOSITION WITH NEUROTROPHIC-LIKE BIOLOGICAL ACTIVITY” (McGill University, priority 1997, dated 1999).
